Where “and” joins values, the source holds several entries; their conditions need not be identical. Identical values can stand only once.
Columns and labels:
[1] = LNP size and polydispersity, Zetasizer Ultra; format: physicochemical
Protocol: (§1) For each LNP composition, the lipid mix and mRNA solution were mixed at a 1:3 ratio by volume, respectively, on a NanoAssemblr Ignite (Precision Nanosystems) at a total flow rate of 9 mL/min. The resulting compositions were then loaded into Slide-A-Lyzer G2 dialysis cassettes (10 k MWCO) and dialyzed in 200 times sample volume of 1×PBS for 2 hours at room temperature with gentle stirring. The PBS was refreshed, and the compositions were further dialyzed for at least 14 hours at 4° C. with gentle stirring. The dialyzed compositions were then collected and concentrated by centrifugation at 3000×g using Amicon Ultra centrifugation filters (100 k MWCO). The concentrated particles were characterized for size, polydispersity, and particle concentration using Zetasizer Ultra (Malvern Panalytical) and for mRNA encapsulation efficiency using Quant-iT RiboGreen RNA Assay Kit (ThermoFisher Scientific).

[2] = mRNA encapsulation efficiency, Quant-iT RiboGreen RNA Assay; format: physicochemical
Protocol: as §1

[3] = test system: Balb/c mice; assay: In-vivo bioluminescent imaging of LNP compositions (Example 6); settings: mRNA dose 5 μg FLUC (CRE/FLUC 1:1 LNP); for Bioluminescence (IV) Liver / Bioluminescence (IV) Lung / Bioluminescence (IV) Spleen / Bioluminescence (IV) Whole Body: 4-6 hours post-dose; for Spleen: Liver Ratio: intravenous
[4] = test system: Balb/c mice; assay: In-vivo bioluminescent imaging of LNP compositions (Example 3); settings: for Bioluminescence, Liver / Bioluminescence, Lung / Bioluminescence, Pancreas / Bioluminescence, Spleen / Bioluminescence, Whole body: LNP with 5 μg Fluc+5 μg EPO mRNA intravenously, 4-6 hours post-dose, two values per compound; for Bioluminescence, Whole body: FIG. 1: average radiance (p/s/cm2/sr); for Organ selectivity of delivery: bioluminescent imaging in mice, Example 3
From the text: C12-200 is commercially available ionizable lipid and has a chemical name of 1,1′-((2-(4-(2-((2-(bis(2-hydroxydodecyl)amino)ethyl)(2-hydroxydodecyl) amino)ethyl)piperazin-1-yl)ethyl)azanediyl)bis(dodecan-2-ol). A composition composed of ionizable lipid:structural lipid:sterol:EG-lipid (C12-200:DOPE:cholesterol:14:0 PEG2000 PE) at a molar ratio of 35:16:46.5:2.5, respectively. Lipids were solubilized in ethanol. These lipids were mixed at the above-indicated molar ratios and diluted in ethanol (organic phase) to 5.5 mM total lipid concentration. The mRNA solution (aqueous phase) was prepared with RNAse-free water and 100 mM citrate buffer pH 3 for a final concentration of 50 mM citrate buffer. The ionizable lipid to mRNA N:P ratio maintained at 15:1.
All other compositions (i.e., compositions of MC3 (a commercially available ionizable lipid having a chemical name of (6Z,9Z,28Z,31Z)-heptatriacont-6,9,28,31-tetraene-19-yl 4-(dimethylamino)butanoate, and compositions of novel ionizable lipids 7669, 7671, 7668, […], 7650) were composed of ionizable lipid:structural lipid:sterol:PEG-lipid (SDA lipid #:DSPC:cholesterol:14:0 PEG2000 PE) at a molar ratio of 50:38.5:10:1.5, respectively. Lipids were solubilized in ethanol. Compositions were then handled as above, except the formulations were maintained at ionizable lipid to mRNA N:P ratio of 6:1. The lipid mix and mRNA solution were mixed at a 1:3 ratio by volume, respectively, on a NanoAssemblr Ignite (Precision Nanosystems) at a total flow rate of 9 mL/min. Resulting compositions were then loaded into Slide-A-Lyzer G2 dialysis cassettes (10 k MWCO) and dialyzed in 200 times sample volume of 1×PBS for 4 hrs at room temp with gentle stirring. The PBS was refreshed, and the compositions were further dialyzed for at least 14 hrs at 4° C. with gentle stirring. The dialyzed compositions were then collected and concentrated by centrifugation at 2000×g using Amicon Ultra centrifugation filters (100 k MWCO). Concentrated particles were characterized for size, polydispersity, and particle concentration using Zetasizer Ultra (Malvern Panalytical) and for mRNA encapsulation efficiency using Quant-iT RiboGreen RNA Assay Kit (ThermoFisher Scientific).
8-9 week old female Balb/c mice were utilized for bioluminescence-based ionizable lipid screening efforts. Mice were obtained from Jackson Laboratories (JAX Stock: 000651) and allowed to acclimate for one week prior to manipulations. Animals were placed under a heat lamp for a few minutes before introducing them to a restraining chamber. The tail was wiped with alcohol pads (Fisher Scientific) and 100 μL of a lipid nanoparticle composition described above containing 10 μg total mRNA (5 μg Fluc+5 μg EPO) was injected intravenously using a 29G insulin syringe (Covidien). Any resulting bleeding was stemmed using a sterile gauze pad (Fisher Scientific) and animals were placed back into their home cage. 4-6 hours post-dose, animals were injected with 200 μL of 15 mg/mL D-Luciferin (GoldBio) and placed in an isoflurane induction chamber set to deliver 2.5% isoflurane delivered at an oxygen flow rate of 1-2 liters per min. After 5 minutes of isoflurane exposure, mice were placed in set nose cones inside the IVIS Lumina LT imager (PerkinElmer). LivingImage software was utilized for imaging. Whole body bio-luminescence was captured at auto-exposure after which animals were removed from the IVIS and placed into a CO2 chamber for euthanasia. Cardiac puncture was performed on each animal after placing it in dorsal recumbency, and blood collection was performed using a 25G insulin syringe (BD). Blood was collected in Lithium-Heparin coated tubes (Fisher Scientific) and immediately placed on ice. Once all blood samples were collected, tubes were spun at 2000G for 10 minutes using a tabletop centrifuge and plasma was aliquoted into individual Eppendorf tubes (Fisher Scientific) and stored at −80 C for subsequent EPO quantification. […]

SMILES	Bioluminescence, Liver [4]	Bioluminescence, Lung [4]	Bioluminescence, Pancreas [4]	Bioluminescence, Spleen [4]	Bioluminescence, Whole body [4]	Organ selectivity of delivery [4]	other results
CCCCCCC(CCCCCC)CCCOC(=O)CCCCCN(CCCCCC(=O)OCCCC(CCCCCC)CCCCCC)CCC(O)CN(C)C (centres unmarked) [Compound 2140, bis(4-hexyldecyl) 6.6′-((4-(dimethylamino)-3-hydroxybutyl)azanediyl)dihexanoate]	–	–	–	–	–	–	PDI ([1]; LNP with CRE/FLUC 1:1 mRNA): 0.16; Size (nm) ([1]; LNP with CRE/FLUC 1:1 mRNA): 86.9 nm; % EE ([2]; LNP with CRE/FLUC 1:1 mRNA): 96.9%; Bioluminescence (IV) Liver [3]: 1.6E + 03; Bioluminescence (IV) Lung [3]: 5.3E + 03; Bioluminescence (IV) Spleen [3]: 1.2E + 05; Bioluminescence (IV) Whole Body [3]: 4.3E + 04; Spleen: Liver Ratio [3]: 76.18
CCCCCCC(CCCCCC)CCCOC(=O)CCCCCN(CCCCCC(=O)OCCCC(CCCCCC)CCCCCC)C(=O)CCCN(C)C [Compound 2134, bis(4-hexyldecyl) 6,6′-((4-(dimethylamino)butanoyl)azanediyl) dihexanoate]	–	–	–	–	–	–	PDI ([1]; LNP with CRE/FLUC 1:1 mRNA): 0.11; Size (nm) ([1]; LNP with CRE/FLUC 1:1 mRNA): 92.9 nm; PDI ([1]; LNP with EGFP mRNA): 0.20; Size (nm) ([1]; LNP with EGFP mRNA): 107.1 nm; % EE ([2]; LNP with CRE/FLUC 1:1 mRNA): 98.3%; % EE ([2]; LNP with EGFP mRNA): 98.3%; Bioluminescence (IV) Liver [3]: 7.5E + 04; Bioluminescence (IV) Lung [3]: 1.4E + 03; Bioluminescence (IV) Spleen [3]: 4.3E + 03; Bioluminescence (IV) Whole Body [3]: 5.4E + 03; Spleen: Liver Ratio [3]: 0.063
CCCCC/C=C\C/C=C\CCCCCCCCC(CCCCCCCC/C=C\C/C=C\CCCCC)OC(=O)CCCN(C)C [MC3, (6Z,9Z,28Z,31Z)-heptatriacont-6,9,28,31-tetraene-19-yl 4-(dimethylamino)butanoate, reference compound]	22000000 and 20300000	300000 and 258000	192000 and 232000	1660000 and 2060000	–	–	–
CCCCCCC(CCCCCC)CCCOC(=O)CCCCCCCN(CCCCCCCC(=O)OCCCC(CCCCCC)CCCCCC)C(=O)CCCN(C)C [Compound 7668, 4-hexyldecyl 8-[4-(dimethylamino)butanoyl-[8-(4-hexyldecoxy)-8-oxo-octyl]amino]octanoate]	–	–	–	56400 and 60500	48500 and 26900	selectively targeted the pancreas and lung over the whole body, liver, or spleen	–
CCCCCCCCCCC(O)CN(CCN1CCN(CCN(CC(O)CCCCCCCCCC)CC(O)CCCCCCCCCC)CC1)CCN(CC(O)CCCCCCCCCC)CC(O)CCCCCCCCCC (centres unmarked) [Compound C12-200, 1,1′-((2-(4-(2-((2-(bis(2-hydroxydodecyl)amino)ethyl)(2-hydroxydodecyl)amino)ethyl)piperazin-1-yl)ethyl)azanediyl)bis(dodecan-2-ol), reference compound]	92300000 and 69700000	–	236000 and 216000	1280000 and 1390000	–	–	–
CCCCCCC(CCCCCC)CCCOC(=O)CCCCCCCN(CCCCCCCC(=O)OCCCC(CCCCCC)CCCCCC)CCC(O)CN(C)C (centres unmarked) [Compound 7676, 4-hexyldecyl 8-[[4-(dimethylamino)-3-hydroxy-butyl]-[8-(4-hexyldecoxy)-8-oxo-octyl]amino]octanoate]	183000 and 161000	262000 and 170000	177000 and 220000	255000 and 259000	50900 and 30400	selectively targeted the pancreas and lung over the whole body, liver, or spleen	–
CCCCCC(CCCCC)CCCOC(=O)CCCCCCCN(CCO)CCCCCCCC(=O)OCCCC(CCCCC)CCCCC [Compound 2135, bis(4-pentylnonyl) 8,8′-((2-hydroxyethyl)azanediyl)dioctanoate]	–	–	–	–	–	–	PDI ([1]; LNP with EGFP mRNA): 0.04; Size (nm) ([1]; LNP with EGFP mRNA): 81.8 nm; % EE ([2]; LNP with EGFP mRNA): 96.2%
CCCCCCC(CCCCCC)CCCOC(=O)CCCCCCCN(CCCCCCCC(=O)OCCCC(CCCCCC)CCCCCC)CCOCCOCCN(C)C [Compound 7669, 4-hexyldecyl 8-[2-[2-[2-(dimethylamino)ethoxy]ethoxy]ethyl-[8-(4-hexyldecoxy)-8-oxo-octyl]amino]octanoate]	92400 and 129000	73000 and 70100	106000 and 87800	112000 and 91700	5120 and 2920	selectively targeted the pancreas and lung over the whole body, liver, or spleen	–
CCCCCCC(CCCCCC)CCCOC(=O)CCCCCCCN(CCO)CCCCCCCC(=O)OCCCC(CCCCCC)CCCCCC [Compound 2136, bis(4-hexyldecyl) 8,8′-((2-hydroxyethyl)azanediyl)dioctanoate]	–	–	–	–	–	–	PDI ([1]; LNP with EGFP mRNA): 0.04; Size (nm) ([1]; LNP with EGFP mRNA): 77.5 nm; % EE ([2]; LNP with EGFP mRNA): 95.5%
CCCCCCC(CCCCCC)CCCOC(=O)CCCCCCCN(CCCCCCCC(=O)OCCCC(CCCCCC)CCCCCC)CCCCN(C)C [Compound 7650, 4-hexyldecyl 8-[4-(dimethylamino)butyl-[8-(4-hexyldecoxy)-8-oxo-octyl]amino]octanoate]	56300 and 83100	150000 and 138000	127000 and 87200	82400 and 108000	12100 and 10900	selectively targeted the pancreas and lung over the whole body, liver, or spleen	–
CCCCCCC(CCCCCC)CCCOC(=O)CCCCCCCN(CCCCCCCC(=O)OCCCC(CCCCCC)CCCCCC)C(=O)CCN1CCCC1 [Compound 7671, 4-hexyldecyl 8-[[8-(4-hexyldecoxy)-8-oxo-octyl]-(3-pyrrolidin-1-ylpropanoyl)amino]octanoate]	296000 and 184000	215000 and 180000	141000 and 185000	422000 and 574000	780000 and 772000	selectively targeted the pancreas and lung over the whole body, liver, or spleen	–
CCCCCC(CCCCC)CCCN(C)C(=O)CCCCCCCN(CCCCCCCC(=O)N(C)CCCC(CCCCC)CCCCC)C(=O)CCN1CCCC1 [Compound 2242, N-methyl-8-(N-(8-(methyl(4-pentylnonyl)amino)-8-oxooctyl)-3-(pyrrolidin-1-yl)propanamido)-N-(4-pentylnonyl)octanamide]	–	–	–	–	–	–	PDI ([1]; LNP with FLUC/EPO 1:1 mRNA): 0.079; Size (nm) ([1]; LNP with FLUC/EPO 1:1 mRNA): 154.2 nm; % EE ([2]; LNP with FLUC/EPO 1:1 mRNA): 89.5%

Reference: patent publication US20250049948A1, “NOVEL IONIZABLE LIPIDS AND LIPID NANOPARTICLES AND METHODS OF USING THE SAME” (Sail Biomedicines, Inc., priority 2021, published 2025)
